# Molecular target: T1, human full-length recombinant PKC βII (Homo sapiens, UniProt P05771)
# T1 construct: Active human full-length recombinant PKC βII; purchased Invitrogen GmbH, Darmstadt, Germany
# Assay: Determination of PKC βII inhibition (Caliper mobility-shift kinase assay, Fluorescein-RFARKGSLRQKNV peptide substrate)
# Type: biochemical
# Settings: example compounds at a final concentration of 1.14 μM (±0.15 μM)
# Procedure, shortened: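 Compounds were tested at 1.14 μM final. Enzyme was activated by PS, DAG and CaCl2 in Hepes pH 7.4 with MgCl2, with substrate 3 μM and ATP 120 μM as pre-mix concentrations. After 60 min at 32 °C and an EDTA stop, Caliper separation gave fractional turnover, which was normalised to no-compound and no-enzyme controls.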
# T1 sequence (P05771 1-673 isoform P05771-2): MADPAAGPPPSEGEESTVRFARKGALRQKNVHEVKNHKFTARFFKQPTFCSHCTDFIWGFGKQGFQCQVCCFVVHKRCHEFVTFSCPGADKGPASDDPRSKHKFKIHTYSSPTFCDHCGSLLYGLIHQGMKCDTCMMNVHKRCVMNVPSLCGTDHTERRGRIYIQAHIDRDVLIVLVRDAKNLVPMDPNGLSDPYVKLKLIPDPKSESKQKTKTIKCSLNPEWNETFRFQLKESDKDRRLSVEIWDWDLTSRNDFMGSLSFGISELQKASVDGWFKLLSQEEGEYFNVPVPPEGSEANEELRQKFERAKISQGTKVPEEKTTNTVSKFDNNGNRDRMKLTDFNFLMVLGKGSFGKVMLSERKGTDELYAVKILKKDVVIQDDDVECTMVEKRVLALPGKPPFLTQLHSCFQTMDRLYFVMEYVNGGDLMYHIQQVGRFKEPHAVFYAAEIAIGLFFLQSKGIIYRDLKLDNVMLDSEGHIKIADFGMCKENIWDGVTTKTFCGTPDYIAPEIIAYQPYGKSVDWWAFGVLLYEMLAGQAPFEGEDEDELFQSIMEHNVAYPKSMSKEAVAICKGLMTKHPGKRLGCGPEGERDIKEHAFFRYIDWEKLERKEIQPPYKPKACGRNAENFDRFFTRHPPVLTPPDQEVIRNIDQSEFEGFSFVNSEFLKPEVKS
row,SMILES,inhibition at 1.14 µM [%]
1,"Cc1n[nH]c2nc(-c3ccc(O)cc3F)cc(C(=O)N3CCN[C@@H](C)C3)c12 [Example 424, [6-(2-Fluoro-4-hydroxy-phenyl)-3-methyl-1H-pyrazolo[3,4-b]pyridin-4-yl]-((S)-3-methyl-piperazin-1-yl)-methanone]",100
2,"Cc1n[nH]c2nc(-c3ccc(O)cc3F)cc(C(=O)N3CCNC(C)(C)C3)c12 [Example 425, (3,3-Dimethyl-piperazin-1-yl)-[6-(2-fluoro-4-hydroxy-phenyl)-3-methyl-1H-pyrazolo[3,4-b]pyridin-4-yl]-methanone]",88
3,"Cc1n[nH]c2nc(-c3ccc(O)cc3F)cc(C(=O)N3CCN[C@H](C)C3)c12 [Example 426, [6-(2-Fluoro-4-hydroxy-phenyl)-3-methyl-1H-pyrazolo[3,4-b]pyridin-4-yl]-((R)-3-methyl-piperazin-1-yl)-methanone]",87
4,"Cc1n[nH]c2nc(-c3ccc(O)cc3F)cc(C(=O)N3C[C@@H](C)NC[C@@H]3C)c12 [Example 429, ((2S,5R)-2,5-Dimethyl-piperazin-1-yl)-[6-(2-fluoro-4-hydroxy-phenyl)-3-methyl-1H-pyrazolo[3,4-b]pyridin-4-yl]-methanone]",98
5,"Cc1n[nH]c2nc(-c3ccc(O)cc3F)cc(C(=O)N3C[C@H](C)NC[C@@H]3C)c12 [Example 430, ((2S,5S)-2,5-Dimethyl-piperazin-1-yl)-[6-(2-fluoro-4-hydroxy-phenyl)-3-methyl-1H-pyrazolo[3,4-b]pyridin-4-yl]-methanone]",92
6,"CC[C@H]1CNCCN1C(=O)c1cc(-c2ccc(O)cc2F)nc2[nH]nc(C)c12 [Example 431, ((S)-2-Ethyl-piperazin-1-yl)-[6-(2-fluoro-4-hydroxy-phenyl)-3-methyl-1H-pyrazolo[3,4-b]pyridin-4-yl]-methanone]",97
7,"Cc1n[nH]c2nc(-c3ccc(O)cc3F)cc(C(=O)N3CCC(N)(C(F)(F)F)C3)c12 (stereo not drawn) [Example 432, (3-Amino-3-trifluoromethyl-pyrrolidin-1-yl)-[6-(2-fluoro-4-hydroxy-phenyl)-3-methyl-1H-pyrazolo[3,4-b]pyridin-4-yl]-methanone]",42
8,"Cc1n[nH]c2nc(-c3ccc(O)cc3F)cc(C(=O)N3CCNCC34CCCC4)c12 [Example 433, (6,9-Diaza-spiro[4.5]dec-6-yl)-[6-(2-fluoro-4-hydroxy-phenyl)-3-methyl-1H-pyrazolo[3,4-b]pyridin-4-yl]-methanone]",98
9,"Cc1n[nH]c2nc(-c3ccc(O)cc3F)cc(C(=O)N3CC(C)NCC3(C)C)c12 (stereo not drawn) [Example 434, [6-(2-Fluoro-4-hydroxy-phenyl)-3-methyl-1H-pyrazolo[3,4-b]pyridin-4-yl]-(2,2,5-trimethyl-piperazin-1-yl)-methanone]",106
10,"CCC1(CC)CNCCN1C(=O)c1cc(-c2ccc(O)cc2F)nc2[nH]nc(C)c12 [Example 436, (2,2-Diethyl-piperazin-1-yl)-[6-(2-fluoro-4-hydroxy-phenyl)-3-methyl-1H-pyrazolo[3,4-b]pyridin-4-yl]-methanone]",100
11,"Cc1n[nH]c2nc(-c3ccc(O)cc3F)cc(C(=O)N3CC(C)NCC34CCCC4)c12 (stereo not drawn) [Example 438, [6-(2-Fluoro-4-hydroxy-phenyl)-3-methyl-1H-pyrazolo[3,4-b]pyridin-4-yl]-(8-methyl-6,9-diaza-spiro[4.5]dec-6-yl)-methanone]",98
12,"CCC1CN(C(=O)c2cc(-c3ccc(O)cc3F)nc3[nH]nc(C)c23)C(CC)CN1 (stereo not drawn) [Example 445, (2,5-Diethyl-piperazin-1-yl)-[6-(2-fluoro-4-hydroxy-phenyl)-3-methyl-1H-pyrazolo[3,4-b]pyridin-4-yl]-methanone]",99
13,"CCC[C@@H]1CN(C(=O)c2cc(-c3ccc(O)cc3F)nc3[nH]nc(C)c23)[C@@H](C)CN1 [Example 448, [6-(2-Fluoro-4-hydroxy-phenyl)-3-methyl-1H-pyrazolo[3,4-b]pyridin-4-yl]-((2S,5R)-2-methyl-5-propyl-piperazin-1-yl)-methanone]",99
14,"Cc1n[nH]c2nc(-c3ccc(O)cc3F)cc(C(=O)N3C[C@@H](C)N(CC4CCOC4)C[C@@H]3C)c12 (stereo partly drawn) [Example 455, [(2S,5R)-2,5-Dimethyl-4-(tetra-hydro-furan-3-ylmethyl)-piperazin-1-yl]-[6-(2-fluoro-4-hydroxy-phenyl)-3-methyl-1H-pyrazolo[3,4-b]pyridin-4-yl]-methanone]",92

# Other lines, results leading:
row,inhibition at 1.14 µM [%],SMILES
1,99,"Cc1n[nH]c2nc(-c3ccc(O)cc3F)cc(C(=O)N3CC(C)(C)NCC3C)c12 (stereo not drawn) [Example 427, [6-(2-Fluoro-4-hydroxy-phenyl)-3-methyl-1H-pyrazolo[3,4-b]pyridin-4-yl]-(2,5,5-trimethyl-piperazin-1-yl)-methanone]"
2,35,"Cc1n[nH]c2nc(-c3ccc(O)cc3F)cc(C(=O)N3C[C@@H](C)NC[C@H]3C)c12 [Example 428, ((2R,5R)-2,5-Dimethyl-piperazin-1-yl)-[6-(2-fluoro-4-hydroxy-phenyl)-3-methyl-1H-pyrazolo[3,4-b]pyridin-4-yl]-methanone]"
3,97,"Cc1n[nH]c2nc(-c3ccc(O)cc3F)cc(C(=O)N3CCNCC3(C)c3ccccc3)c12 (stereo not drawn) [Example 435, [6-(2-Fluoro-4-hydroxy-phenyl)-3-methyl-1H-pyrazolo[3,4-b]pyridin-4-yl]-(2-methyl-2-phenyl-piperazin-1-yl)-methanone]"
4,99,"Cc1n[nH]c2nc(-c3ccc(O)cc3F)cc(C(=O)N3CC(C)(C)NCC34CCCC4)c12 [Example 437, (8,8-Dimethyl-6,9-diaza-spiro[4.5]dec-6-yl)-[6-(2-fluoro-4-hydroxy-phenyl)-3-methyl-1H-pyrazolo[3,4-b]pyridin-4-yl]-methanone]"
5,99,"Cc1n[nH]c2nc(-c3ccc(O)cc3F)cc(C(=O)N3CCNCC34CCC4)c12 [Example 439, (5,8-Diaza-spiro[3.5]non-5-yl)-[6-(2-fluoro-4-hydroxy-phenyl)-3-methyl-1H-pyrazolo[3,4-b]pyridin-4-yl]-methanone]"
6,90,"Cc1n[nH]c2nc(-c3ccc(O)cc3F)cc(C(=O)NC3(c4ccccc4)CCNCC3)c12 [Example 440, 6-(2-Fluoro-4-hydroxy-phenyl)-3-methyl-1H-pyrazolo[3,4-b]pyridine-4-carboxylic acid (4-phenyl-piperidin-4-yl)-amide]"
7,96,"CCCC1CN(C(=O)c2cc(-c3ccc(O)cc3F)nc3[nH]nc(C)c23)C(CCC)CN1 (stereo not drawn) [Example 441, (2,5-Dipropyl-piperazin-1-yl)-[6-(2-fluoro-4-hydroxy-phenyl)-3-methyl-1H-pyrazolo[3,4-b]pyridin-4-yl]-methanone]"
8,97,"Cc1n[nH]c2nc(-c3ccc(O)cc3F)cc(C(=O)N3CCN[C@H]4CCCC[C@@H]43)c12 [Example 443, [6-(2-Fluoro-4-hydroxy-phenyl)-3-methyl-1H-pyrazolo[3,4-b]pyridin-4-yl]-(4aS,8aS)-octahydro-quinoxalin-1-yl-methanone]"
9,99,"Cc1n[nH]c2nc(-c3ccc(O)cc3F)cc(C(=O)N3C(C)CNCC3C)c12 (stereo not drawn) [Example 444, (2,6-Dimethyl-piperazin-1-yl)-[6-(2-fluoro-4-hydroxy-phenyl)-3-methyl-1H-pyrazolo[3,4-b]pyridin-4-yl]-methanone]"
10,98,"CC[C@@H]1CN(C(=O)c2cc(-c3ccc(O)cc3F)nc3[nH]nc(C)c23)[C@@H](C)CN1 [Example 446, ((2S,5R)-5-Ethyl-2-methyl-piperazin-1-yl)-[6-(2-fluoro-4-hydroxy-phenyl)-3-methyl-1H-pyrazolo[3,4-b]pyridin-4-yl)-methanone]"
11,99,"CCC1(C)CNC(C)(C)CN1C(=O)c1cc(-c2ccc(O)cc2F)nc2[nH]nc(C)c12 (stereo not drawn) [Example 449, (2-Ethyl-2,5,5-trimethyl-piperazin-1-yl)-[6-(2-fluoro-4-hydroxy-phenyl)-3-methyl-1H-pyrazolo[3,4-b]pyridin-4-yl]-methanone]"
12,100,"CCC1(CC)CNC(C)(C)CN1C(=O)c1cc(-c2ccc(O)cc2F)nc2[nH]nc(C)c12 [Example 450, (2,2-Diethyl-5,5-dimethyl-piperazin-1-yl)-[6-(2-fluoro-4-hydroxy-phenyl)-3-methyl-1H-pyrazolo[3,4-b]pyridin-4-yl]-methanone]"
13,104,"Cc1n[nH]c2nc(-c3ccc(O)cc3F)cc(C(=O)N3CC4(CCCC4)NCC3(C)C)c12 [Example 451, (8,8-Dimethyl-6,9-diaza-spiro[4.5]dec-9-yl)-[6-(2-fluoro-4-hydroxy-phenyl)-3-methyl-1H-pyrazolo[3,4-b]pyridin-4-yl]-methanone]"
14,83,"Cc1n[nH]c2nc(-c3ccc(O)cc3F)cc(C(=O)N3C[C@@H](C)N(Cc4ccccn4)C[C@@H]3C)c12 [Example 452, ((2S,5R)-2,5-Dimethyl-4-pyridin-2-ylmethyl-piperazin-1-yl)-[6-(2-fluoro-4-hydroxy-phenyl)-3-methyl-1H-pyrazolo[3,4-b]pyridin-4-yl]-methanone]"
15,90,"Cc1n[nH]c2nc(-c3ccc(O)cc3F)cc(C(=O)N3C[C@@H](C)N(CC4CCNCC4)C[C@@H]3C)c12 [Example 453, ((2S,5R)-2,5-Dimethyl-4-piperidin-4-ylmethyl-piperazin-1-yl)-[6-(2-fluoro-4-hydroxy-phenyl)-3-methyl-1H-pyrazolo[3,4-b]pyridin-4-yl]-methanone]"
16,81,"Cc1n[nH]c2nc(-c3ccc(O)cc3F)cc(C(=O)N3C[C@@H](C)N(CC4CCOCC4)C[C@@H]3C)c12 [Example 454, [(2S,5R)-2,5-Dimethyl-4-(tetra-hydro-pyran-4-yl-methyl)-piperazin-1-yl]-[6-(2-fluoro-4-hydroxy-phenyl)-3-methyl-1H-pyrazolo[3,4-b]pyridin-4-yl]-methanone]"
